For assay [1], the system named is KM12. In words: Antiproliferative activity against human KM12 cells harbouring TRK assessed as reduction in cell viability. It counts as functional.
Assay [2] concerns LC-2-ad. In words: Antiproliferative activity against human LC-2-ad cells harbouring RET assessed as reduction in cell viability. The class given is functional.
Assay [3] deals with A549. In words: Antiproliferative activity against human A549 cells harbouring KRAS assessed as reduction in cell viability. It counts as functional.
For assay [4], the target named is T1, High affinity nerve growth factor receptor (Homo sapiens, UniProt P04629). In words: Inhibition of TRK autophosphorylation in human KM12 cells at 0.01 to 1 uM measured after 24 hrs by Western blot analysis. The following applies: dose 0.01-1 µM. It counts as cell-based.
Target sequence in this assay (P04629 33-796 limits assumed): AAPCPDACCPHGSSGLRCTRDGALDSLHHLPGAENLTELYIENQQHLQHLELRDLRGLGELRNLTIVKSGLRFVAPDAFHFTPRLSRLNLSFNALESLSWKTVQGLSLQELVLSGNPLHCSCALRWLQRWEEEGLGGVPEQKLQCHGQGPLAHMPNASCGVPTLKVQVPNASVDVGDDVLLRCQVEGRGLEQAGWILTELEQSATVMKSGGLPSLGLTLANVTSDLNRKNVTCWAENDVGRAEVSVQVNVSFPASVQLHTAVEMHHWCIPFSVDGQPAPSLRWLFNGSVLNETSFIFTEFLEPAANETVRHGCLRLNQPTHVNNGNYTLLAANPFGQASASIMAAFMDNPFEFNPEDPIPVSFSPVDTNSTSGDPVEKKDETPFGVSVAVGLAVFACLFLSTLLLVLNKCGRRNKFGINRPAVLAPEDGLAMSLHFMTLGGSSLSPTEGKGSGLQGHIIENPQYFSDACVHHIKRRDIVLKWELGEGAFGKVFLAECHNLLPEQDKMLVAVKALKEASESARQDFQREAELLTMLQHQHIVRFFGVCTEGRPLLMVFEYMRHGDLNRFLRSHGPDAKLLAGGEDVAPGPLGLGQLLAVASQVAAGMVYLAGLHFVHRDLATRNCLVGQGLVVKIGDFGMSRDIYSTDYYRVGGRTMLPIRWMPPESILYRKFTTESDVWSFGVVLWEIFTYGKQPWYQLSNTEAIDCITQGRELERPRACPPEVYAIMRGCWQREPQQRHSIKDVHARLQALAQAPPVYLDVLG
Assay [5] relates to KM12. In words: Induction of cell cycle arrest in human KM12 cells assessed as accumulation of cells at G1 phase at 1 uM incubated for 24 hrs by flow cytometry analysis. It counts as functional, cell-based.
Assay [6] has as its target T1, High affinity nerve growth factor receptor. In words: Inhibition of TRK autophosphorylation (unknown origin).
Target sequence in this assay (P04629 33-796 limits assumed): as above
The test system of assay [7] is LC-2-ad. In words: Induction of cell cycle arrest in human LC-2-ad cells assessed as accumulation of cells at G1 phase at 1 uM incubated for 24 hrs by flow cytometry analysis. The class given is functional, cell-based.
Assay [8] concerns the target T1, High affinity nerve growth factor receptor. Description: Inhibition of TRK autophosphorylation in human LC-2-ad cells at 0.01 to 1 uM measured after 24 hrs by Western blot analysis. It counts as cell-based. Particulars: dose 0.01-1 µM. (In general: In western blotting, separated proteins are transferred to a membrane and probed.)
Target sequence in this assay (P04629 33-796 limits assumed): as above
The test system of assay [9] is A549. Description: Induction of cell cycle arrest in human A549 cells assessed as accumulation of cells at G1 phase at 0.01 uM incubated for 24 hrs by flow cytometry analysis. The class given is functional, cell-based.
In assay [10] the test system is LC-2-ad. Description: Induction of cell cycle arrest in human LC-2-ad cells assessed as accumulation of cells at G1 phase at 0.01 uM incubated for 24 hrs by flow cytometry analysis. It counts as functional, cell-based.
Assay [11] relates to KM12. Description: Induction of cell cycle arrest in human KM12 cells assessed as accumulation of cells at G1 phase at 0.01 uM incubated for 24 hrs by flow cytometry analysis. The class given is functional, cell-based. (Flow cytometry measures light scatter and fluorescence of single cells or particles in a stream.)
The target in assay [12] is T1, High affinity nerve growth factor receptor. In words: Inhibition of TRK (unknown origin).
Target sequence in this assay (P04629 whole entry): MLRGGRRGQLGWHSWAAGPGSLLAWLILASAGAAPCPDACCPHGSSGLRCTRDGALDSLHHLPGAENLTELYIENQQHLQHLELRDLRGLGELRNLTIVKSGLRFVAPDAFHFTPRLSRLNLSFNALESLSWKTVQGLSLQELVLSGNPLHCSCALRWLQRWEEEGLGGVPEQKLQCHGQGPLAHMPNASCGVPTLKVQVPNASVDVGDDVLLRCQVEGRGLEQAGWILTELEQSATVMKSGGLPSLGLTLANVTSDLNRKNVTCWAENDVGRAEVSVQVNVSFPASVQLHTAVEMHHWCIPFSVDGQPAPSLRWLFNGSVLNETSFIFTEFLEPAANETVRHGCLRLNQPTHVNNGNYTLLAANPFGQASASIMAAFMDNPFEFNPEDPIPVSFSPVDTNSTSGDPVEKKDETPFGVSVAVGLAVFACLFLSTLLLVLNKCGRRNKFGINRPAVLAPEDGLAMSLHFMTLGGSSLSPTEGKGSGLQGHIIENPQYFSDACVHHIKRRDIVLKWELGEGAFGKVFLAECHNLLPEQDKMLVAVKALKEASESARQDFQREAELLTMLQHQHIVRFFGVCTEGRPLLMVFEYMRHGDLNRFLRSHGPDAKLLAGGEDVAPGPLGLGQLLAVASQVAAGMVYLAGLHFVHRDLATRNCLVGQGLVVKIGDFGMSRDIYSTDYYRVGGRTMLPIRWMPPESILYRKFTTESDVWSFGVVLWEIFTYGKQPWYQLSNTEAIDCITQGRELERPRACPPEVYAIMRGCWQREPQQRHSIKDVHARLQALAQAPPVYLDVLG
Assay [13] has as its target Proto-oncogene tyrosine-protein kinase receptor Ret (Homo sapiens, UniProt P07949). In words: Inhibition of 5FAM-tagged RET (unknown origin) using 5FAM-EPLYWSFPA as substrate incubated for 60 mins.

Active and inactive are the calls of the source. No cut-off for these calls is given here.

Chain of Proto-oncogene tyrosine-protein kinase receptor Ret (P07949 whole entry): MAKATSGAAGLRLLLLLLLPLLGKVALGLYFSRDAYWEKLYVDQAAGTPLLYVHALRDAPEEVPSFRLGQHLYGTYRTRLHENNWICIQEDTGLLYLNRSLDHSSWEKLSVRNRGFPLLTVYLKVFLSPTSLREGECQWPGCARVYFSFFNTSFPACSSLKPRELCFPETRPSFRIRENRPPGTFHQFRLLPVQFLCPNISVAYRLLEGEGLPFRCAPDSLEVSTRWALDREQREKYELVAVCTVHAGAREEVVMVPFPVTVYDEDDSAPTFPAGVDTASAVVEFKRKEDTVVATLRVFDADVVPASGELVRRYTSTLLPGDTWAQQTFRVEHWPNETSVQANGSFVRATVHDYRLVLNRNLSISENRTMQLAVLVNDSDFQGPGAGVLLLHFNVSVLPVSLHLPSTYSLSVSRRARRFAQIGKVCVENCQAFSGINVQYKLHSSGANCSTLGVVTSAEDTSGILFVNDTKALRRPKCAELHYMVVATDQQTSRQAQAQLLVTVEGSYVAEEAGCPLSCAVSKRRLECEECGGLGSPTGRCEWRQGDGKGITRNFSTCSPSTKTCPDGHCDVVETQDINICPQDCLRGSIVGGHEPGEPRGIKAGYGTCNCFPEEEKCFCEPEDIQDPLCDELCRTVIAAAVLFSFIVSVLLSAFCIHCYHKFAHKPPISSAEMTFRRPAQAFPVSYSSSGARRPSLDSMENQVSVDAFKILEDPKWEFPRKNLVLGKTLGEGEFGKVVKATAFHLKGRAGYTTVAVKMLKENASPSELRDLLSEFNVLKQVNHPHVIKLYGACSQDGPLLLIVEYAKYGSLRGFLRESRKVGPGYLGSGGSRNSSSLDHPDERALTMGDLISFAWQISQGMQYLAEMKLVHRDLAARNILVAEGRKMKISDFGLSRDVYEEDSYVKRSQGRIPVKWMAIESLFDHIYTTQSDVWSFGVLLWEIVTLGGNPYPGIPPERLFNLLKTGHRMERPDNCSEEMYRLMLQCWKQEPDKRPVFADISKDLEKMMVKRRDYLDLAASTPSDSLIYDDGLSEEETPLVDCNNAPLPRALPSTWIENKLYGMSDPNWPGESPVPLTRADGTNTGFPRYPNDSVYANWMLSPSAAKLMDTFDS

For `COCCn1cc(-c2ccc3c(c2)[nH]c2ncnc(Nc4ccc(CC(=O)Nc5cc(C(C)(C)C)on5)cc4)c23)cn1`, the GC50 in the assay with KM12 [1] was 0.59 µM; with LC-2-ad [2], 0.36 µM; in the assay on A549 [3], 5.88 µM.

For `Cn1nc(C(C)(C)C)cc1NC(=O)Cc1ccc(Nc2ncnc3[nH]c4ccccc4c23)cc1`, the inhibition result in assay [4], in [6] and in assay [8] was “Active” throughout. Moreover, the outcome in the assay on KM12 [5] and in the assay on LC-2-ad [7] was Active.

`Cn1cc(-c2ccc3c(c2)[nH]c2ncnc(Nc4ccc(CC(=O)Nc5cc(C(C)(C)C)nn5C)cc4)c23)cn1`: the inhibition result in assay [4], in [6] and in [8] was “Active” each time. The outcome in the assay with KM12 [5] and in the assay with LC-2-ad [7] was Active.

Take `CNC(=O)c1cc(Oc2ccc(NC(=O)Nc3ccc(Cl)c(C(F)(F)F)c3)cc2)ccn1` [SORAFENIB]: the result in the assay on A549 [9], in the assay with LC-2-ad [10] and with KM12 [11] was Active. Also, the GC50 in the assay with KM12 [1] is 3.82 µM; in the assay on LC-2-ad [2], 0.54 µM; with A549 [3], 7.2 µM.

Turning to `Cn1cc(-c2ccc3c(c2)[nH]c2ncnc(Nc4ccc(CC(=O)Nc5cc(C(C)(C)C)on5)cc4)c23)cn1`, the result in the assay on KM12 [5] and in the assay on LC-2-ad [7] was Active. Moreover, the inhibition entry in assay [6] was “Active”.

A word on the IC50: it is the concentration that gives 50% inhibition. Consider `Cn1cc(-c2ccc3c(c2)ncn3-c2ccc(CC(=O)Nc3cc(C(C)(C)C)on3)cc2)cn1`, for which the figures for the concentration for half-maximal inhibition (IC50) in [12] and in [13] were 0.0016 µM and 0.001 µM, respectively.

Take `C[C@@H]1CCc2ncc(F)cc2[C@H]2CCCN2c2ccn3ncc(c3n2)C(=O)N1` [SELITRECTINIB]: the outcome in the assay on A549 [9], in the assay with LC-2-ad [10] and in the assay on KM12 [11] was Active. Besides, the GC50 was 0.005 µM in the assay with KM12 [1], 25.98 µM in the assay with LC-2-ad [2] and more than 40 µM with A549 [3].

Consider `O=C(Cc1ccc(Nc2ncnc3[nH]c4ccccc4c23)cc1)Nc1cccc(C(F)(F)F)c1`, for which the values for the GC50 with KM12 [1], in the assay with LC-2-ad [2] and in the assay with A549 [3] were 0.49 µM, 0.94 µM and more than 10 µM, respectively.

Consider `COc1cc2nccc(Oc3ccc(NC(=O)C4(C(=O)Nc5ccc(F)cc5)CC4)cc3)c2cc1OC` [CABOZANTINIB], for which, in assay [12], the IC50 came to 0.079 µM.

(Values after ChEMBL document CHEMBL5550150, “Discovery of 9H-pyrimido[4,5-b]indole derivatives as dual RET/TRKA inhibitors” (Bioorg Med Chem, 2024).)
